Measurements from US4977180A, “Novel prolinal derivatives” (Ono Pharmaceutical Co., Ltd., priority 1987, dated 1990).
pIC50: −log10 of the molar value. Where a SMILES comes first, the peptide text is derived from it. [ ]: non-standard residue; d: D form. The star is where a group is joined. ξ: configuration not given here. Cbz = O=C(OCc1ccccc1)*; ξP = O=C(O)C1CCCN1; CH2Cl = ClC*

Experiments:
[1] = biological target: T1, prolyl endopeptidase (Bos taurus, UniProt Q9XTA2); assay: Prolyl endopeptidase inhibitory activity in vitro; format: biochemical; conditions: prolyl endopeptidase purified from bovine brain, pH 7.5, 37° C., substrate N-benzyloxycarbonyl-glycyl-prolyl-p-nitroanilide, 30 mins' incubation, read-out: Concentration for 50% inhibition IC50
T1 construct: prolyl endopeptidase which was purified from bovine brain; from tissue; host or cells: bovine brain
T1 sequence (Q9XTA2 whole entry): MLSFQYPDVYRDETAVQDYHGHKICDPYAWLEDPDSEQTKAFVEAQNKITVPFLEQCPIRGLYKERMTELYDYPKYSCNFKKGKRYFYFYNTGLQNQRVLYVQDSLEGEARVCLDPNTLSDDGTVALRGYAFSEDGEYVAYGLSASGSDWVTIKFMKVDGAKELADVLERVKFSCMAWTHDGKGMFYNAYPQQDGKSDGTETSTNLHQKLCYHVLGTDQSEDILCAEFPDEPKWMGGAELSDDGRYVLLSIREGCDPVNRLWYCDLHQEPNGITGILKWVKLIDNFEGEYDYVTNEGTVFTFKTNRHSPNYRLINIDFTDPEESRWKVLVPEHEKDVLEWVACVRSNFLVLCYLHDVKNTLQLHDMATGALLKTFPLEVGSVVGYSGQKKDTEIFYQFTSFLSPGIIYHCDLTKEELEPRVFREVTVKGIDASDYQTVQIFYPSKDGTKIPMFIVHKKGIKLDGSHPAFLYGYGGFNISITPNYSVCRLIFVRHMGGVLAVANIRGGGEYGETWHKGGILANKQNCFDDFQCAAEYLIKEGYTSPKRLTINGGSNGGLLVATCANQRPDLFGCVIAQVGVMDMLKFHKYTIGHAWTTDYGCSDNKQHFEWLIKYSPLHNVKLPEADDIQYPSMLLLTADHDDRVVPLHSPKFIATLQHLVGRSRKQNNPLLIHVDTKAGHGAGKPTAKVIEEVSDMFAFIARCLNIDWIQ
Method: Inhibitory activity of prolyl endopeptidase in vitro was measured by the following test system.
A mixed solution of 20 mM tris-HCl buffer (pH 7.5; 935 μl; containing 10 mM EDTA and 10 mM mercaptoethanol), a solution of a compound of the present invention in DMSO (10 μl) and a solution of prolyl endopeptidase which was purified from bovine brain (0.13 unit; prepared by the method described in J. Biochem., 94, 1179 (1983)) in tris-HCl buffer (15 μl) was preincubated for 15 mins at 37° C.
To the solution, 5 mM of N-benzyloxycarbonyl-glycyl-prolyl-p-nitroanilide (40 μl) in a mixture of 40% dioxane-60% water was added. The solution was incubated for 1 min at the same temperature.
Optical absorption (a1) at 405 nm of the solution, and optical absorption (a2) at 405 nm of the solution after 30 mins' further incubation at 37° C. were measured.
Optical absorptions (b1 and b2) of the solutions using DMSO instead of the solution of the compound of the present invention were also measured.
Inhibitory ratio was calculated by the following expression and IC50 (required concentration for 50% inhibition) was obtained (See Protein, Nucleic acid and Enzyme 25(6), 513, 1980.). [formula]

[2] = system: prolyl endopeptidase; conditions: in words; J. Neurochem., 41, 69 (1983); cited from earlier work

SMILES	pIC50 [1]	inhibits prolyl endopeptidase [2]
O=C[C@@H]1CCCN1C(=O)[C@@H]1CCC[C@H]1C(=O)CCc1ccccc1 (mixture of isomers) [1 (b), N-[trans-2-(3-phenylpropanoyl)cyclopentanecarbonyl]-L-prolinal]	7.85	
O=C[C@@H]1CCCN1C(=O)[C@@H]1CCCC[C@H]1C(=O)CCc1ccccc1 (mixture of isomers) [1 (c), N-[trans-2-(3-phenylpropanoyl)cyclohexanecarbonyl]-L-prolinal]	7.62	
O=C[C@@H]1CCCN1C(=O)CCC(=O)CCc1ccccc1 [1 (a), N-(6-phenyl-4-oxohexanoyl) L-prolinal]	6.92	
CC(C)C(C(=O)CCCCc1ccccc1)C(=O)N1CCC[C@H]1C=O (stereo partly drawn) [1 (d), N-(2RS-isopropyl-3-oxo-7-phenylheptanoyl)-L-prolinal]	6.82	
O=C[C@@H]1CCCN1C(=O)CCC(=O)CCc1cccc(Cl)c1 [1 (e), N-[6-(3-chlorophenyl)-4-oxohexanoyl]-L-prolinal]	7.30	
O=C[C@@H]1CCCN1C(=O)CCC(=O)CCCCc1ccccc1 [1 (f), N-(4-oxo-8-phenyloctanoyl)-L-prolinal]	7.21	
COc1ccc(CCC(=O)CCC(=O)N2CCC[C@H]2C=O)cc1 [1 (g), N-[6-(4-methoxyphenyl)-4-oxohexanoyl]-L-prolinal]	7.08	
O=C[C@@H]1CCCN1C(=O)CCC(=O)CCc1ccc(Cl)cc1 [1 (h), N-[6-(4-chlorophenyl)-4-oxohexanoyl]-L-prolinal]	7.54	
Cc1ccc(CCC(=O)CCC(=O)N2CCC[C@H]2C=O)cc1 [1 (i), N-[6-(4-methylphenyl)-4-oxohexanoyl]-L-prolinal]	7.96	
O=C[C@@H]1CCCN1C(=O)CCC(=O)CCCc1ccccc1[N+](=O)[O-] [1 (j), N-[7-(2-nitrophenyl)-4-oxoheptanoyl]-L-prolinal]	7.49	
O=C[C@@H]1CCCN1C(=O)CCC(=O)CCc1cccc2ccccc12 [1 (k), N-[6-(1-naphthyl)-4-oxohexanoyl]-L-prolinal]	7.74	
O=C[C@@H]1CCCN1C(=O)CCC(=O)CCc1ccc2ccccc2c1 [1 (l), N-[6-(2-naphthyl)-4-oxohexanoyl]-L-prolinal]	7.41	
O=C[C@@H]1CCCN1C(=O)CCC(=O)CCc1ccc(C(F)(F)F)cc1 [1 (m), N-[4-oxo-6-(p-trifluoro-methylphenyl)hexanoyl]-L-prolinal]	7.82	
O=C[C@@H]1CCCN1C(=O)CCC(=O)CCCc1ccccc1 [Example 1, N-(7-phenyl-4-oxoheptanoyl)-L-prolinal]	7.57	
O=CC1CCCN1C(=O)[C@@H]1CCCN1C(=O)OCc1ccccc1 (stereo partly drawn) [N-benzyloxycarbonyl-L-propyl-prolinal] (Cbz-Pro-[ξP]-aldehyde)		strongly inhibits prolyl endopeptidase
O=C(NCC(=O)N1CCC[C@H]1C(=O)CCl)OCc1ccccc1 [N-benzyloxycarbonyl-glycyl-L-prolyl-chloromethane] (Cbz-Gly-Pro-CH2Cl)		strongly inhibits prolyl endopeptidase
